Values of other authors as cited in patent US7875460B2, “Method for determining the effectiveness of stabilized chlorine dioxide in a mouth rinse” (priority 2007, dated 2011).

How the values were obtained:
bacteria = conditions: exposures as short as 10 seconds
[1] = in vivo

[O][Cl+][O-] [chlorine dioxide]
reduction in bacteria (bacteria): dramatic reduction in bacteria
decrease in VSCs in expired mouth air [1]: remarkable decrease in VSCs
effects on haematology, blood biochemistry, or organ weights (Sprague-Dawley rats; 0, 2, 4, 6, 12 mg/kg/day (male) and 0, 2, 5, 8, 15 mg/kg/day (female) in drinking-water for 90 days): no toxicologically significant effects
target tissue identified: nasal cavity findings (Sprague-Dawley rats; drinking-water for 90 days): increased incidence of goblet cell hyperplasia, squamous metaplasia, and inflammatory responses
deaths (Sprague-Dawley rats; exposures as high as 11.5 mg/kg/day (male) and 14.9 mg/kg/day (female)): no deaths were reported
